This is an account of results in patent publication US7629156B2, “Ethanol production in fermentation of mixed sugars containing xylose” (E.I. du Pont de Nemours and Company, priority 2006, dated 2009).

What all share (type): cell-based, Zymomonas mobilis
In test [1] the test system is ZW658 strain. The test can be described thus: Flask growth of ZW658 on glucose and xylose with sorbitol 0.5-10 mM. The following applies: after 14.25 hours, total sugar about 160 g/L. The procedure: (§1) Approximately 1 ml of well mixed sample was obtained from flask or fermentor. First the sample absorbance was measured directly with a spectrophotometer (Amersham Biosciences Ultrospec 3300pro, GE Healthcare, Piscataway, N.J., USA). If the reading was lower than 0.6 unit, no dilution was needed. If the reading was higher than 0.6 unit, the sample was diluted with culture medium until the actual reading was in the range of 0.1 to 0.6 unit. The original OD was calculated from the dilution ratio and the actual reading.
(§2) Glycerol stock of seed frozen at −80° C. was thawed, then inoculated into sterile culture tubes with mixture of 60 g/L glucose, 20 g/L xylose, 10 g/L yeast extract (YE), 10 g/L KH2PO4, 2 g/L (NH4)2SO4, and 1 g/L MgSO4. Initial pH was adjusted to 5.5 with 4 N KOH. This revival culture was grown statically overnight at 37° C. It was transferred into shake flasks with 75 g/L glucose, 25 g/L xylose, 10 g/L yeast extract (YE), 10 g/L KH2PO4, 2 g/L (NH4)2SO4, and 1 g/L MgSO4. Initial pH was adjusted to 5.5 with 4 N KOH. Growth was monitored by measuring OD600. When the OD reached approximately 5, a certain volume of the seed was withdrawn into a sterile syringe for inoculation.
In five sterilized 125 ml Erlenmeyer culture flasks (Cat. No. 30180-036, VWR International, USA), 10 ml of ZW658 strain seed culture at OD600 of approximately 5 (measured at 600 nm) was inoculated into each flask with 100 ml of aqueous solution containing 100 g/L glucose, 80 g/L xylose, 10 g/L yeast extract (YE), 10 g/L KH2PO4, 2 g/L (NH4)2SO4, 1 g/L MgSO4.7H2O, and various concentrations of sorbitol (0, 0.5, 1, 2, and 10 mM). After inoculation, the total sugar concentration was about 160 g/L due to dilution by the seed culture. Initial pH was adjusted to 5.5 with 4 N KOH solution. Mixing speed was set at 150 rpm. Fermentation was conducted at 33° C. and pH was not controlled. Samples were taken periodically. Samples were diluted with medium (as described in General Methods) and the OD600 was measured to monitor cell growth. […] Cultures with higher concentration of sorbitol, in this range, grew faster and better. After 14.25 hours, the OD600 were 4.19, 7.10, 8.08, 8.62, and 10.1, respectively, for sorbitol concentrations of 0, 0.5, 1, 2, and 10 mM.

The subject of test [2] is ZW658 strain. The test can be described thus: Flask fermentation of ZW658 on glucose and xylose with various polyols. The following applies: 10 mM polyol. The procedure:
as §1
(§3) The analysis of sugars, acetate, ethanol, and other by-products was done with an Agilent 1100 series HPLC and Agilent ChemStation software for LC 3D. The column was BioRad Aminex HPX-87H(HPLC Organic Analysis Column 125-0140) with BioRad Micro-Guard Cartridge Cation-H (125-0129). The operating conditions were:
as §2
In five sterilized 125 ml Erlenmeyer culture flasks (Cat. No. 30180-036, VWR International, USA), 10 ml of ZW658 strain seed culture at OD600 of approximately 5 was inoculated into each flask with 100 ml of aqueous solution containing 100 g/L glucose, 80 g/L xylose, 10 g/L yeast extract (YE), 2 g/L KH2PO4, 1 g/L MgSO4.7H2O, and 4 g/L KHCO3, and 10 mM of one of the following polyols: erythritol, sorbitol, mannitol, maltitol, or lactitol. After inoculation, the total sugar concentration was about 160 g/L due to dilution by the seed culture. Initial pH was adjusted to 5.5 with 4 N H3PO4 solution. Mixing speed was set at 150 rpm. Fermentation was conducted at 33° C. and pH was not controlled. Samples were taken periodically. Samples were filtered through 0.22 micron filters, and the filtrates were analyzed by HPLC as described in General Methods for compounds including glucose, xylose, ethanol, xylitol, and acetic acid. Samples were diluted with medium (as described in General Methods) and the OD600 was measured to monitor cell growth. […] Cultures with sorbitol or mannitol grew faster and better. After 32 hours, the OD600 were 13.94 and 13.92, respectively, for cultures supplemented with sorbitol or mannitol; meanwhile, the OD600 were 9.48, 9.02, and 9.24, respectively, for cultures supplemented with erythritol, maltitol, or lactitol. […] The presence of sorbitol or mannitol allowed more xylose utilization, without production of xylitol.

For test [3], the system named is ZW658 strain. The test can be described thus: Flask fermentation of ZW658 on high concentration glucose or xylose alone with sorbitol. The following applies: for OD600: after 48 hours, 33° C.; for ethanol production rate: 20 mM sorbitol vs no sorbitol. As to the method:
as §1, §3, §2
In four sterilized 125 ml Erlenmeyer culture flasks (Cat. No. 30180-036, VWR International, USA), 10 ml of ZW658 strain seed culture at OD600 of approximately 5 was inoculated into each flask with 100 ml of aqueous solution containing 10 g/L yeast extract (YE), 2 g/L KH2PO4, 4 g/L KHCO3. Before inoculation, the first flask also contained 200 g/L glucose and 20 mM sorbitol, comparing to the second flask with 200 g/L glucose only. The third flask contained 200 g/L xylose and 20 mM sorbitol, comparing to the fourth flask with 200 g/L xylose only. After inoculation, sugar concentrations were diluted to about 180 g/L. Initial pH was adjusted to 5.5 with 4 NH3PO4 solution. Mixing speed was set at 150 rpm. Fermentation was conducted at 33° C. and pH was not controlled. Samples were taken periodically. Samples were filtered through 0.22 micron filters, and the filtrates were analyzed by HPLC as described in General Methods for compounds including glucose, xylose, ethanol, and xylitol. Samples were diluted with medium (as described in General Methods) and the OD600 was measured to monitor cell growth. […] After 48 hours, the OD600 were 9.94, 6.46, 5.37 and 5.45, respectively, for the first, second, third, and fourth flask.

SMILES strings stand for the structures.

In the case of `OC[C@@H](O)[C@@H](O)[C@H](O)[C@@H](O)CO` [sorbitol], the OD600 was 7.10 in the test on ZW658 strain [1] (0.5 mM sorbitol); 8.08 with ZW658 strain [1] (1 mM sorbitol); 8.62 in the test with ZW658 strain [1] (2 mM sorbitol); 10.1 with ZW658 strain [1] (10 mM sorbitol); 13.94 in the test with ZW658 strain [2] (after 32 hours, total sugar about 160 g/L, 33° C.); 9.94 with ZW658 strain [3] (200 g/L glucose (about 180 g/L after inoculation), 20 mM sorbitol). The OD600 in the test with ZW658 strain [3] (200 g/L xylose (about 180 g/L after inoculation), 20 mM sorbitol) worked out at 5.37. The ethanol production entry with ZW658 strain [2] (mixed sugars) is “ethanol production was also better”. The xylose utilization result in the test with ZW658 strain [2] (mixed sugars) is recorded as “More xylose was utilized”. Also, the ethanol production rate entry in the test with ZW658 strain [3] (glucose culture) was “more rapid”; with ZW658 strain [3] (xylose only culture), “at the same rate with and without sorbitol”. Besides, in the test on ZW658 strain [3] (glucose only or xylose only cultures, 20 mM sorbitol), the xylitol production entry was “No xylitol was produced”. Moreover, the effect on growth entry is “significantly stimulated growth” in the test on ZW658 strain [3] (high concentration glucose culture, 20 mM sorbitol) and “almost no effect on growth” in the test on ZW658 strain [3] (high concentration xylose culture, 20 mM sorbitol).
